This experiment deals with NR1/NR2A (Homo sapiens (Human), UniProt Q05586+Q12879). Kind of experiment: FDSS Ca2+ influx inhibition assay in HEK293 cells expressing NR1/NR2A. The class given is cell-based. As to conditions: 3 μM glutamate, 3 μM glycine, 1 mM Ca2+. The procedure:
Cell Culture and plating: HEK293 cells expressing NR1/NR2A (Chantest, Cleveland, Ohio) were grown to 70-80% confluency as an adherent monolayer in standard tissue culture flasks at 37° C., 5% CO2 per supplier's instructions.
After induction, cell culture medium was removed and cells were rinsed once with Ca^2+ and Mg^2+-free Dulbecco's phosphate buffered saline. Cells were then removed from the flask using TrypLE™ Express (Life Technologies) according to the manufacturer's instructions and collected to 50 ml centrifuge tubes. Following two washes in Ca^2+/Mg^2+-free HBSS with 20 mM HEPES (HHnoCa), cells were counted and viability assessed using trypan blue. To load cells with Ca^2+-sensitive dye, they were resuspended in fluo-8 plus Component B (AAT Bioquest Products) diluted in HHnoCa and incubated 15 minutes at 37° C., followed by 30 minutes at room temp (in dark). Cells were then washed and resuspended in HHnoCa to remove extracellular dye and plated in 384-well plates (Falcon, uncoated) at 20,000-30,000 cells/well in a final volume of 25 μL/well.
FDSS Assay: To each well of the plate, 10 μL test compound, control (MK801) or HHnoCa buffer was added to a final concentration of 10 μM with a final concentration of DMSO of 0.1%. Following 10 minutes pre-incubation in the dark, plates are loaded onto the Hamamatsu FDSS 6000. After collecting baseline fluorescence images, 3 μM glutamate, 3 μM glycine, and 1 mM Ca^2+ in HHnoCa buffer is added to each well, and Ca^2+ is recorded for 3 minutes. Data were processed by computing ratio of fluorescence at the end of data collection to baseline fluorescence to assess degree of Ca^2+ influx inhibition relative to that observed in MK801.

[1] abbreviates: inhibition relative to MK801, read-out: NR2A IC50.

Where two headings read alike, the source gives them in different places. Where only a bound is given, the exact number is not on record here.

NR1/NR2A, sequence (Q12879 23-1464, other chains not shown): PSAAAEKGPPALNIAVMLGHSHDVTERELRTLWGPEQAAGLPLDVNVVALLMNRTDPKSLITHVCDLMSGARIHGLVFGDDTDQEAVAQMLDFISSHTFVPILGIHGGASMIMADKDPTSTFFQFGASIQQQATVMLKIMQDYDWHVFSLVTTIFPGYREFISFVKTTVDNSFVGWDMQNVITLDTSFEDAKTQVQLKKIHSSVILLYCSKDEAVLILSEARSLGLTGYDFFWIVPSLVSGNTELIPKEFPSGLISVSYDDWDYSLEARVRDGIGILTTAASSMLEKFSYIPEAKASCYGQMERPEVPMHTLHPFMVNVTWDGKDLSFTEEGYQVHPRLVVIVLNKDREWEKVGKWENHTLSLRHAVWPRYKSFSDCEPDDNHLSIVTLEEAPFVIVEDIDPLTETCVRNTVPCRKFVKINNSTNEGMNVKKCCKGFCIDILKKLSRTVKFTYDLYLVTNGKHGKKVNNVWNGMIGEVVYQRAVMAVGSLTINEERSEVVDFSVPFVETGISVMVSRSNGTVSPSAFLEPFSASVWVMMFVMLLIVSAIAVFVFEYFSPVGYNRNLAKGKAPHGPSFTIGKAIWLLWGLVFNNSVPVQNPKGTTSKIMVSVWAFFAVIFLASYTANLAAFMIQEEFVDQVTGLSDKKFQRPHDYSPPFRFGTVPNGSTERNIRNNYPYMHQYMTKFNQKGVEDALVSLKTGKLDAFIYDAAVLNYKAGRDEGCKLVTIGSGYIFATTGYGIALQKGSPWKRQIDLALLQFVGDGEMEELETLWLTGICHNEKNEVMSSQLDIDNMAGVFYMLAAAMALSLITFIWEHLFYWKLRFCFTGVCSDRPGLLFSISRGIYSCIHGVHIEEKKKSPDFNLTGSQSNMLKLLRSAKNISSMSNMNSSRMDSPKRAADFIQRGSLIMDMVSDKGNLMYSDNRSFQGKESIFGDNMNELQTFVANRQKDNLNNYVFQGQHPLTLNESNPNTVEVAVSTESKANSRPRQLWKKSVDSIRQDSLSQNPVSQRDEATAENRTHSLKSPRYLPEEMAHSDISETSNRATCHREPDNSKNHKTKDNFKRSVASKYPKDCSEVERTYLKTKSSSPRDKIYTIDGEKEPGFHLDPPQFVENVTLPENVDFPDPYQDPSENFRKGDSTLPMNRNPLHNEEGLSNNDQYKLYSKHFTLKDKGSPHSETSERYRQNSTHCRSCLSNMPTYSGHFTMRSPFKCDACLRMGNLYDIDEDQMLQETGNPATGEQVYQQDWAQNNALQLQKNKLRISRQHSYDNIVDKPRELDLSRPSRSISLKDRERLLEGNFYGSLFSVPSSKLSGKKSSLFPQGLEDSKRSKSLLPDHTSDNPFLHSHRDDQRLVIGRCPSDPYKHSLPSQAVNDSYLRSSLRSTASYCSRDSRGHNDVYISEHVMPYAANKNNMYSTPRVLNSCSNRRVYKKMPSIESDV

In the case of `Cc1cnc(CNC(=O)c2cnc(CNS(=O)(=O)c3ccc(F)c(Cl)c3)cn2)cn1` [5-(3-chloro-4-fluorobenzenesulfon-amidomethyl)-N-[(5-methylpyrazin-2-yl)methyl]pyrazine-2-carboxamide], where the note is “read-out: Binned Activity”, the IC50 lay in the range of 1 to 10 µM.
`O=C(NCc1ccccn1)c1ccc(CNS(=O)(=O)c2ccc(F)c(Cl)c2)cn1` [5-(3-chloro-4-fluorobenzenesulfon-amidomethyl)-N-(pyridin-2-ylmethyl)pyridine-2-carboxamide]: the IC50 was 10 µM under setting [1] and more than 10 µM (read-out: Binned Activity).
As for `O=C(NCc1ncc(C(F)(F)F)cc1Cl)c1cnc(CNS(=O)(=O)c2ccc(F)c(Cl)c2)cn1` [5-(3-chloro-4-fluorobenzenesulfon-amidomethyl)-N-{[3-chloro-5-(trifluoromethyl)pyridin-2-yl]methyl}pyrazine-2-carboxamide], the IC50 is 10 µM under setting [1] and more than 10 µM (read-out: Binned Activity).
Take `Cc1ncc(CNC(=O)c2ccc(CNS(=O)(=O)c3ccc(Cl)nc3Cl)cn2)s1` [5-(2,6-dichloropyridine-3-sulfonamidomethyl)-N-[(2-methyl-1,3-thiazol-5-yl)methyl]pyridine-2-carboxamide]: the IC50 is, setting by setting: under setting [1], 10 µM; (read-out: Binned Activity) more than 10 µM.
With `O=C(NCc1ccncc1)c1ccc(CNS(=O)(=O)c2ccc(F)c(Cl)c2)nn1` [6-(3-chloro-4-fluorobenzenesulfon-amidomethyl)-N-(pyridin-4-ylmethyl)pyridazine-3-carboxamide], the IC50 under setting [1] is 10 µM and the IC50 (read-out: Binned Activity) is more than 10 µM.
Taken in the same sequence, the figures for `O=C(NCc1cccnc1)c1ncc(CNS(=O)(=O)c2ccc(F)c(Cl)c2)cn1` [5-(3-chloro-4-fluorobenzenesulfon-amidomethyl)-N-(pyridin-3-ylmethyl)pyrimidine-2-carboxamide] were 10 µM and more than 10 µM.
`Cn1cnc(CNC(=O)c2ccc(CNS(=O)(=O)c3ccc(F)c(Cl)c3)nn2)c1` [6-(3-chloro-4-fluorobenzenesulfon-amidomethyl)-N-[(1-methyl-1H-imidazol-4-yl)methyl]pyridazine-3-carboxamide]: the IC50 was 10 µM under setting [1] and more than 10 µM (read-out: Binned Activity).
Turning to `Cc1ncc(CNC(=O)c2ccc(CNC(=O)c3cccc(C#N)c3)cn2)s1` [5-{[(3-cyanophenyl)formamido]methyl}-N-[(2-methyl-1,3-thiazol-5-yl)methyl]pyridine-2-carboxamide], the IC50 by setting is: under setting [1], 10 µM; (read-out: Binned Activity) more than 10 µM.
For the compound `COc1ccccc1CNC(=O)c1ccc(CNS(=O)(=O)c2ccc(F)c(Cl)c2)nc1` [6-(3-chloro-4-fluorobenzenesulfon-amidomethyl)-N-[(2-methoxyphenyl)methyl] pyridine-3-carboxamide], the IC50 under setting [1] stood at 10 µM and the IC50 (read-out: Binned Activity) is more than 10 µM.
Consider `Cc1cccc(CNC(=O)c2ccc(CNS(=O)(=O)c3ccc(F)c(Cl)c3)cn2)n1` [5-(3-chloro-4-fluorobenzenesulfon-amidomethyl)-N-[(6-methylpyridin-2-yl)methyl]pyridine-2-carboxamide], for which the IC50 under setting [1] came out at 10 µM and the IC50 (read-out: Binned Activity) is more than 10 µM.
`Cc1ncc(CNC(=O)c2cnc(CNS(=O)(=O)c3cc(Cl)ccc3F)cn2)s1` [5-(5-chloro-2-fluorobenzenesulfon-amidomethyl)-N-[(2-methyl-1,3-thiazol-5-yl)methyl]pyrazine-2-carboxamide]: the IC50 was 10 µM under setting [1] and more than 10 µM (read-out: Binned Activity).
As to `Cc1cc(CNC(=O)c2ccc(CNS(=O)(=O)c3ccc(F)c(Cl)c3)nc2)n(C)n1` [6-(3-chloro-4-fluorobenzenesulfon-amidomethyl)-N-[(1,3-dimethyl-1H-pyrazol-5-yl)methyl]pyridine-3-carboxamide], the IC50 runs as follows: under setting [1], 10 µM; (read-out: Binned Activity) more than 10 µM.
With `O=C(NCc1cccnc1)c1cnc(CNS(=O)(=O)c2ccc(F)c(Cl)c2)cn1` [5-(3-chloro-4-fluorobenzenesulfon-amidomethyl)-N-(pyridin-3-ylmethyl)pyrazine-2-carboxamide], under “read-out: Binned Activity”, the IC50 is 0.1 to 1 µM.
